# According to publication PMC2719696, “Kinetics and Cellular Site of Glycolipid Loading Control the Outcome of Natural Killer T Cell Activation” (Immunity, 2009):
# Target: T1, mCD1d (Mus musculus, UniProt P11609)
# T1 construct: host or cells: JAWS II (C57BL/6.Trp53-/- derived dendritic cell line)
# T1 sequence (P11609 22-336): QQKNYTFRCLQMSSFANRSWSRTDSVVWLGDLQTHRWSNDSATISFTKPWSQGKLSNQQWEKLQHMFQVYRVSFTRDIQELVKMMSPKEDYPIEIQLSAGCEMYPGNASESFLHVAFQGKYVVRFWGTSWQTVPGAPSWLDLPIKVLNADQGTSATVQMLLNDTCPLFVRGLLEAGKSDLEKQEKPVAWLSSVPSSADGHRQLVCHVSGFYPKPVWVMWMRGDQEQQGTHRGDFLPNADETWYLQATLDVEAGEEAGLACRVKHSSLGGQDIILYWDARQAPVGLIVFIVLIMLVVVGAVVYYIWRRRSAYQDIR
# T1 sequence (P01887 21-119 partner): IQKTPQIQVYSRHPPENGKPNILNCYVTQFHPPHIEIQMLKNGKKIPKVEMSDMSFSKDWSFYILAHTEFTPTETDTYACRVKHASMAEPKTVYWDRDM
# Assay: mAb L363 surface staining of JAWS II cells by flow cytometry (kinetics and pulse-chase)
# Type: cell-based
# Details: JAWS II cells pulsed 500 nM for 1.5 hr, 8 hr chase
# Method: We studied this possibility directly by using a monoclonal antibody (L363) that specifically recognizes complexes of αGalCer bound to mCD1d ([Yu et al., 2007]). Mouse splenocytes were cultured with either αGalCer-C26:0 or representative Th2 cell-type cytokine-biasing analogs, and L363 staining was assessed on various cell types (Figure 3A). […] This was investigated further with more detailed kinetic studies in which immortalized mouse DC line JAWS II was cultured with each glycolipid and assessed for L363 surface staining at 0.5, 4, and 18 hr (Figure 3B). There was a striking correlation between rapid kinetics of glycolipid association with mCD1d and the ability to induce a Th2 cell-type cytokine response. […] In contrast, most analogs inducing Th2 cell-type cytokine responses gave strong L363 staining by 0.5 hr, which increased modestly or not at all with longer incubation. […] Experiments using responses of iNKT cells to analyze the kinetics of cell-surface appearance gave analogous results (Figure S5).
# Figure 3 Direct Analysis of Presentation of αGalCer Analogs with Complex-Specific mAb Staining (A) Mouse splenocytes cultured with either vehicle only (0.02% DMSO) or with the indicated αGalCer analogs (100 nM) were harvested after 1 hr or 19 hr of incubation and stained with mAb L363 or anti-CD1d mAb 1B1 and with mAbs specific for CD11c, CD19, and F4/80 (Figure S4). Filled histograms show L363 staining of cells cultured with vehicle only, and open histograms show cells cultured with indicated glycolipids. At the left, the total CD1d staining with mAb 1B1 (open histograms) compared to isotype control mAb (filled histograms) are shown on cells cultured for 19 hr with DMSO only. (B) JAWS II cells were incubated with glycolipids (250 nM) for various times ranging from 0.5–18 hr as indicated, stained with mAb L363, and analyzed by flow cytometry. Dashed line histograms show L363 staining of cells incubated with medium only, and bold histograms show L363 staining of cells incubated with αGalCer analogs. (C) JAWS II cells were pulsed with indicated αGalCer analogs (500 nM) for 1.5 hr, washed extensively, and recultured at 37°C for various chase times. Upon harvesting, cells were placed on ice and subsequently stained with mAb L363 for flow cytometry analysis. Histogram overlays show L363 staining of cells pulsed initially with vehicle only (DMSO, dashed histograms) or with αGalCer analog (bold histograms). […] All results shown (A, B, and C) were representative of at least two independent experiments.
# Recombinant CD1d proteins were produced and assembled into tetramers for staining as previously described ([Forestier et al., 2007]). To obtain optimally loaded tetramers for iNKT cell staining, we loaded mCD1d with αGalCer-C26:0 and -C24:0 in the presence of 0.05% Triton X-100 (Sigma-Aldrich) and loaded mCD1d with other glycolipids without Triton X-100. For loading of hCD1d, 0.05% Triton X-100 was included with αGalCer-C26:0, -C24:0, and -C20:4, whereas other glycolipids were loaded without Triton X-100. For surface staining of αGalCer/mCD1d complexes, murine splenocytes or JAWS II cells were incubated with 250 nM glycolipids for various times and then 0.2 μg/ml mAb L363 (Alexa Fluor 647 or biotin conjugated) was added directly to the culture for an additional 30 min at RT. In some experiments, additional fluorochrome-conjugated antibodies specific for leukocyte subpopulations were added for the last 15 min of incubation. All samples were analyzed with the FACSCalibur flow cytometer (BD Biosciences).
row,SMILES,formation of mCD1d-αGalCer surface complexes in pulse-chase analysis
1,CCCCCC=CCC=CCCCCCCCCCC(=O)NC(COC1OC(CO)C(O)C(O)C1O)C(O)C(O)CCCCCCCCCCCCCC (stereo not drawn) [αGalCer-C20:2],the complexes formed rapidly and began declining immediately during the chase period
2,CCCCCCCCCCCCCCC(O)C(O)C(COC1OC(CO)C(O)C(O)C1O)NC(=O)CCCCCCCCC (stereo not drawn) [αGalCer-C10:0],the complexes formed rapidly and began declining immediately during the chase period
3,"CCCCCCCCCCCCCCCCCCCCCCCCCC(=O)NC(COC1OC(CO)C(O)C(O)C1O)C(O)C(O)CCCCCCCCCCCCCC (stereo not drawn) [αGalCer-C26:0, reference compound]",formed slowly

# Same assay, conditions: JAWS II cells, 250 nM glycolipid, 0.5, 4 and 18 hr
row,SMILES,L363 surface staining over time
1,CCCCCCCCCCCCCCCCCCCCCCCC(=O)NC(COC1OC(CO)C(O)C(O)C1O)C(O)C(O)CCCCCCCCCCCCCC (stereo not drawn) [αGalCer-C24:0],strong L363 staining was detected only at 18 hr
2,CCCCCCCCCCCCCCCCCCCCCCCC(=O)NC(COC1OC(CO)C(O)C(O)C1O)C(O)C(O)CCCCC (stereo not drawn) [OCH],very weak L363 reactivity
3,"CCCCCCCCCCCCCCCCCCCCCCCCCC(=O)NC(COC1OC(CO)C(O)C(O)C1O)C(O)C(O)CCCCCCCCCCCCCC (stereo not drawn) [αGalCer-C26:0, reference compound]",strong L363 staining was detected only at 18 hr
